Assay results published in patent US10981932B2, “Macrocyclic indole derivatives” (Bayer Aktiengesellschaft, priority 2016, dated 2021).
Where “and” joins values, the source holds several entries; their conditions need not be identical. Identical values can stand only once. Like-named read-outs stand apart in the source and are kept apart here.

Key:
MCL-1 = MCL-1 (Homo sapiens, UniProt Q07820); test: Protein-protein interaction assay MCL-1/Noxa BH3 peptide (MCL-1 assay), TR-FRET; format: binding; conditions: MBP-MCL-1 / Noxa BH3-derived peptide, median
Method in brief: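 TR-FRET, 665/622 nm emission ratio (excitation 330–350 nm), measured MCL-1/Noxa complex formation. 1 nM MBP-MCL-1, 50 mM Tris/HCl pH 7, 0.1% BGG, 2 mM DTT. Incubation 1 h at 22 °C, then overnight at 4 °C. IC50 by 4-parameter regression, normalized to DMSO (0%) and no-MCL-1 (100%) controls.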

SUDHL5 [1] = test: Induction of caspase-3/7 activity (Caspase-Glo 3/7), SUDHL5; format: cell-based; conditions: caspase-3/7 induction, SUDHL5 cells, 3 h treatment, median
Method in brief: (§1)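 DLBCL cells treated with compounds for 3 h at 37 °C, then caspase-3/7 activity read by Caspase-Glo 3/7 luminescence. Medium-only background subtracted; EC50 fitted with C0 fixed at 1 and top set to the reference compound's maximal induction.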

SUDHL10 [2] = test: Induction of caspase-3/7 activity (Caspase-Glo 3/7), SUDHL10; format: cell-based; conditions: caspase-3/7 induction, SUDHL10 cells, 3 h treatment, median
Method in brief: as §1

SUDHL5 [3] = test: Anti-proliferative effect (CellTiter-Glo, 72 h), SUDHL5; format: cell-based; conditions: SUDHL5 cells, antiproliferation, 72 h incubation, median, read-out: Antiproli SUDHL5 [M] (median)
Method in brief: (§2)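 A time zero plate, read with CellTiter-Glo shortly after seeding, served as baseline; compound-treated plates were incubated 72 h at 37 °C and then read identically by luminescence.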

SUDHL10 [4] = test: Anti-proliferative effect (CellTiter-Glo, 72 h), SUDHL10; format: cell-based; conditions: SUDHL10 cells, antiproliferation, 72 h incubation, median, read-out: Antiproli SUDHL10 [M] (median)
Method in brief: as §2

OPM2 = test: Anti-proliferative effect (CellTiter-Glo, 72 h), OPM2; format: cell-based; conditions: OPM2 cells, median, read-out: IC50 antiproliferation assay OPM2 [M] (median)
Method in brief: as §2

SUDHL5 [5] = test: Induction of cytotoxicity (CellTiter-Glo, 5 h), SUDHL5
SUDHL10 [6] = test: Induction of cytotoxicity (CellTiter-Glo, 5 h), SUDHL10
A2780 = test: Anti-proliferative effect (CellTiter-Glo, 72 h), A2780; format: cell-based; conditions: A2780 cells, median, read-out: IC50 antiproliferation assay A2780 [M] (median)
Method in brief: as §2

[7] = Homo sapiens, SU-DHL-5, 5 h, read-out: Cytotox SUDHL5 [M] (median), SUDHL5 cells, cytotoxicity induction, CellTiter-Glo, 5 h incubation, median
[8] = Homo sapiens, SU-DHL10, 5 h, read-out: Cytotox SUDHL10 [M] (median), SUDHL10 cells, cytotoxicity induction, CellTiter-Glo, 5 h incubation, median
[9] = read-out: Cytotox SUDHL5 [M] (median), SUDHL5 cells, cytotoxicity induction, CellTiter-Glo, 5 h incubation, median
[10] = read-out: Cytotox SUDHL10 [M] (median), SUDHL10 cells, cytotoxicity induction, CellTiter-Glo, 5 h incubation, median

MCL-1, sequence (Q07820 whole entry): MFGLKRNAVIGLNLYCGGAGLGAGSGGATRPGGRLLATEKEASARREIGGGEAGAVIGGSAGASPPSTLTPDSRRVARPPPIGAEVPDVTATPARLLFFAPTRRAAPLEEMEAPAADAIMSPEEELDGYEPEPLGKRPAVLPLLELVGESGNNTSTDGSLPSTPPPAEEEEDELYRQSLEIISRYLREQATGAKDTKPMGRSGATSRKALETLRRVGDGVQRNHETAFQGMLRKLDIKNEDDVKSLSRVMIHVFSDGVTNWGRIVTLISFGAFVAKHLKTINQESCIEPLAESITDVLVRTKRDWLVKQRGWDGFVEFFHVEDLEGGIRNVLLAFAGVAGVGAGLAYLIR

| Compound | IC50 (MCL-1) | EC50 (SUDHL5 [1]; Homo sapiens, SU-DHL-5, 3 h) | EC50 (SUDHL10 [2]; Homo sapiens, SU-DHL10, 3 h) | IC50 (SUDHL5 [3]; Homo sapiens, SU-DHL-5, 72 h) | IC50 (SUDHL10 [4]; Homo sapiens, SU-DHL10, 72 h) | EC50 (SUDHL5 [1]) | EC50 (SUDHL10 [2]) | IC50 (SUDHL5 [3]) | IC50 (SUDHL10 [4]) | IC50 (A2780; Homo sapiens, A2780, 72 h) | IC50 (A2780) | IC50 (OPM2; Homo sapiens, OPM-2, 72 h) | IC50 (SUDHL5 [5]; [7]) | IC50 (SUDHL10 [6]; [8]) | IC50 (OPM2) | IC50 (SUDHL5 [5]; [9]) | IC50 (SUDHL10 [6]; [10]) |
| --- | --- | --- | --- | --- | --- | --- | --- | --- | --- | --- | --- | --- | --- | --- | --- | --- | --- |
| Cn1nc(COc2ccccc2)c2c1COCC=CCn1c(C(=O)O)c(CCCOc3cccc4ccccc34)c3cccc-2c31 (single isomer, unassigned) [Example 1-77, (E/Z)-1-methyl-7-[3-(naphthalen-1-yloxy)propyl]-3-(phenoxymethyl)-1,10,13,15-tetrahydropyrazolo[4′,3′:9,10][1,6]oxazacycloundecino[8,7,6-hi]indole-8-carboxylic Acid] | 188 nM | > 33 µM | > 33 µM | 2.96e-05 M | 1.52e-05 M | – | – | – | – | – | – | > 3.3e-05 M | > 3.3e-05 M | > 3.3e-05 M | – | – | – |
| Cc1nn(C)c2c1-c1cccc3c(CCCOc4cccc5ccccc45)c(C(=O)O)n(c13)CC=CCN2Cc1ccccc1 (racemic) [Example 001, (rac)-(E/Z)-8-benzyl-9,11-dimethyl-1-[3-(1-naphthyloxy)propyl]-4,7,8,9-tetrahydropyrazolo[4′,3′:4,5][1,6]diazecino[3,2,1-hi]indole-2-carboxylic Acid] | 1010 nM | > 33 µM | 29.1 µM | > 3.3e-05 M | 9.57e-06 M | – | – | – | – | – | – | > 3.3e-05 M | 2.61e-05 M | > 3.3e-05 M | – | – | – |
| Cn1nc(COc2ccccc2)c2c1COCC=CCn1c(C(=O)O)c(CCCOc3cccc4ccccc34)c3cccc-2c31 (racemic) [Example 1-76, (rac)-(E/Z)-1-methyl-7-[3-(naphthalen-1-yloxy)propyl]-3-(phenoxymethyl)-1,10,13,15-tetrahydropyrazolo[4′,3′:9,10][1,6]oxazacycloundecino[8,7,6-hi]indole-8-carboxylic Acid] | – | > 33 µM | > 33 µM | 2.1e-05 M | 1.13e-05 M | – | – | – | – | – | – | > 3.3e-05 M | > 3.3e-05 M | > 3.3e-05 M | – | – | – |
| COCCn1nc2c(c1CN1CCOCC1)-c1cccc3c(CCCOc4cccc5ccccc45)c(C(=O)O)n(c13)CCCN(C)C2 (racemic) [Example 056, (rac)-10-(2-methoxyethyl)-7-methyl-11-(morpholin-4-ylmethyl)-1-[3-(naphthalen-1-yloxy)propyl]-4,5,6,7,8,10-hexahydropyrazolo[3′,4′:7,8][1,5]diazecino[9,10,1-hi]indole-2-carboxylic Acid] | 49 nM | > 33 µM | > 33 µM | – | 2e-05 M | – | – | – | – | > 3.3e-05 M | – | > 3.3e-05 M | > 3.3e-05 M | > 3.3e-05 M | – | – | – |
| Cn1nc(COc2ccc(N3CCN(CC(=O)O)CC3)cc2)c2c1COCCCCn1c(C(=O)O)c(CCCOc3cccc4ccccc34)c3cccc-2c31 (racemic) [Example 1-120, (rac)-3-({4-[4-(Carboxymethy)piperazin-1-yl]phenoxy}methyl)-1-methyl-7-[3-(naphthalen-1-yloxy)propyl]-1,10,11,12,13,15-hexahydropyrazolo[4′,3′:9,10][1,6]oxazacycloundecino[8,7,6-hi]indole-8-carboxylic Acid] | 4.66 nM | > 33 µM | > 33 µM | – | > 3.3e-05 M | – | – | – | – | > 3.3e-05 M | – | > 3.3e-05 M | > 3.3e-05 M | > 3.3e-05 M | – | – | – |

Now from value to compound, other results behind:

| IC50 (MCL-1) | EC50 (SUDHL5 [1]; Homo sapiens, SU-DHL-5, 3 h) | EC50 (SUDHL10 [2]; Homo sapiens, SU-DHL10, 3 h) | IC50 (SUDHL5 [3]; Homo sapiens, SU-DHL-5, 72 h) | IC50 (SUDHL10 [4]; Homo sapiens, SU-DHL10, 72 h) | EC50 (SUDHL5 [1]) | EC50 (SUDHL10 [2]) | IC50 (SUDHL5 [3]) | IC50 (SUDHL10 [4]) | IC50 (A2780; Homo sapiens, A2780, 72 h) | IC50 (A2780) | Compound | IC50 (OPM2; Homo sapiens, OPM-2, 72 h) | IC50 (SUDHL5 [5]; [7]) | IC50 (SUDHL10 [6]; [8]) | IC50 (OPM2) | IC50 (SUDHL5 [5]; [9]) | IC50 (SUDHL10 [6]; [10]) |
| --- | --- | --- | --- | --- | --- | --- | --- | --- | --- | --- | --- | --- | --- | --- | --- | --- | --- |
| 262 nM | > 33 µM | > 33 µM | 2.5e-05 M | 1.03e-05 M | – | – | – | – | – | – | Cc1cc(OCCCc2c(C(=O)O)n3c4c(cccc24)-c2c(COc4ccccc4)nn(C)c2CN(C)CCC3)cc(C)c1Cl (single isomer, unassigned) [Example 1-85, 1-[3-(4-chloro-3,5-dimethylphenoxy)propyl]-7,9-dimethyl-11-(phenoxymethyl)-4,5,6,7,8,9-hexahydropyrazolo[3′,4′:7,8][1,5]diazecino[9,10,1-hi]indole-2-carboxylic Acid] | > 3.3e-05 M | > 3.3e-05 M | > 3.3e-05 M | – | – | – |
| 84.8 nM | – | – | – | – | > 33 µM | > 33 µM | 8.21e-06 M | 5.63e-06 M | – | – | CN1CCCn2c(C(=O)O)c(CCCOc3cccc4ccccc34)c3cccc(c32)-c2c(COc3ccc(N4CCN(S(=O)(=O)N(C)C)CC4)cc3)nn(C)c2C1 (single isomer, unassigned; enantiomer 2) [Example 1-16, 11-({4-[4-(dimethylsulfamoyl)piperazin-1-yl]phenoxy}methyl)-7,9-dimethyl-1-[3-(naphthalen-1-yloxy)propyl]-4,5,6,7,8,9-hexahydropyrazolo[3′,4′:7,8][1,5]diazecino[9,10,1-hi]indole-2-carboxylic Acid (Enantiomer 2)] | – | – | – | 1.15e-05 M | > 3.3e-05 M | > 3.3e-05 M |
| 43.3 nM | > 33 µM | 29.1 µM | > 3.3e-05 M | 1.54e-05 M | – | – | – | – | – | – | Cc1nn(C)c2c1-c1cccc3c(CCCOc4cccc5ccccc45)c(C(=O)O)n(c13)CCCCN2 [Example 003, (rac)-9,11-dimethyl-1-[3-(1-naphthyloxy)propyl]-4,5,6,7,8,9-hexahydropyrazolo[4′,3′:4,5][1,6]diazecino[3,2,1-hi]indole-2-carboxylic Acid] | > 3.3e-05 M | > 3.3e-05 M | > 3.3e-05 M | – | – | – |
| 278 nM | – | – | – | – | > 33 µM | > 33 µM | 1.96e-05 M | 9.45e-06 M | – | – | Cc1cc(OCCCc2c(C(=O)O)n3c4c(cccc24)-c2c(COc4ccccc4)nn(C)c2CN(C)CCC3)cc(C)c1Cl (single isomer, unassigned) [Example 1-86, 1-[3-(4-chloro-3,5-dimethylphenoxy)propyl]-7,9-dimethyl-1-(phenoxymethyl)-4,5,6,7,8,9-hexahydropyrazolo[3′,4′:7,8][1,5]diazecino[9,10,1-hi]indole-2-carboxylic Acid] | – | – | – | 2.43e-05 M | > 3.3e-05 M | > 3.3e-05 M |
| 6.52 nM | 15.6 µM | 30.1 µM | 1.04e-05 M | 1.36e-05 M | – | – | – | – | – | – | Cc1nn(C)c2c1-c1cccc3c(CCCOc4cccc5ccccc45)c(C(=O)O)n(c13)CCCN(C)C2 (racemic) [Example 1-30, (rac)-7,9,11-trimethyl-1-[3-(naphthalen-1-yloxy)propyl]-4,5,6,7,8,9-hexahydropyrazolo[3′,4′:7,8][1,5]diazecino[9,10,1-hi]indole-2-carboxylic Acid] | 2.28e-05 M | > 3.3e-05 M | > 3.3e-05 M | – | – | – |
| 175 nM | > 30 µM | > 30 µM | 1.18e-05 M | 7.07e-06 M | – | – | – | – | – | – | Cc1nn(C)c2c1-c1cccc3c(CCCOc4cccc5ccccc45)c(C(=O)O)n(c13)CCCN(c1ccccc1)C2 (racemic) [Example 1-97, (rac)-9,11-Dimethyl-1-[3-(1-naphthyloxy)propyl]-7-phenyl-4,5,6,7,8,9-hexahydropyrazolo[3′4′:78][1,5]diazecino[9,10,1-hi]indole-2-carboxylic Acid] | 1.43e-05 M | > 3e-05 M | > 3e-05 M | – | – | – |
| 5.93 nM | – | – | – | – | 30.5 µM and > 33 µM | > 33 µM | 1.56e-05 M | 1.12e-05 M | – | 1.39e-05 M | CC(C)OCc1nn(C)c2c1-c1cccc3c(CCCOc4cccc5ccccc45)c(C(=O)O)n(c13)CCCCN(C)C2 (single isomer, unassigned) [Example 1-75, 1,14-dimethyl-7-[3-(naphthalen-1-yloxy)propyl]-3-[(propan-2-yloxy)methyl]-10,11,12,13,14,15-hexahydro-1H-pyrazolo[3′,4′:8,9][1,6]diazacycloundecino[10,11,1-hi]indole-8-carboxylic Acid] | – | – | – | 9.37e-06 M | – | 1.9e-05 M and > 3.3e-05 M |
